Results taken from ChEMBL document CHEMBL6103629 (J Med Chem, 2025).

How the values were obtained:
LoVo [1] = assay: Induction of apoptosis in human LoVo cells assessed as late apoptotic cells at 1 uM incubated for 24 hrs by Annexin-V-FITC-PI staining based flow cytometric analysis (reference value: 13.2 %); assay type: functional
LoVo [2] = assay: Induction of apoptosis in human LoVo cells assessed as early apoptotic cells at 3 uM incubated for 24 hrs by Annexin-V-FITC-PI staining based flow cytometric analysis (reference value: 13.7 %); assay type: functional
LoVo [3] = assay: Induction of apoptosis in human LoVo cells assessed as late apoptotic cells at 3 uM incubated for 24 hrs by Annexin-V-FITC-PI staining based flow cytometric analysis (reference value: 13.2 %); assay type: functional
LoVo [4] = assay: Induction of apoptosis in human LoVo cells assessed as necrotic cells at 3 uM incubated for 24 hrs by Annexin-V-FITC-PI staining based flow cytometric analysis (reference value: 0.97 %); assay type: functional
[5] = target: Serine/threonine-protein kinase mTOR (Homo sapiens, UniProt P42345); assay: Inhibition of mTOR (unknown origin) preincubated for 15 mins and measured after 60 mins by Z-LYTE screening
[6] = Inhibition of DNA-PK (unknown origin) preincubated for 15 mins and measured after 60 mins by Z-LYTE screening; parameters: species or system Homo sapiens
[7] = Dissociation constant, pKa of compound; assay type: physicochemical
[8] = Permeability across basolateral to apical side in human Caco-2 cells at 0.1 to 10 uM incubated for 120 mins by LC-MS/MS analysis; assay type: ADME, cell-based; conditions: caco-2, 2 h, dose 0.1-10 µM
[9] = Permeability across basolateral to apical side in human MDCK-MDR1 cells at 0.1 to 10 uM incubated for 120 mins by LC-MS/MS analysis; assay type: ADME, cell-based, Canis lupus familiaris; conditions: dog, mdck-mdr1, 2 h, dose 0.1-10 µM
[10] = Plasma protein binding in Sprague-Dawley rat at 1 uM incubated for 5 hrs in HTD dialysis in the presence of verapamil by LC-MS/MS analysis relative to control; assay type: ADME, cell-free; conditions: read-out: PPB (converted)
[11] = Plasma protein binding in Beagle dog at 1 uM incubated for 5 hrs in HTD dialysis in the presence of verapamil by LC-MS/MS analysis relative to control; assay type: ADME, cell-free, Canis lupus familiaris; conditions: read-out: PPB (converted)
[12] = Plasma protein binding in human at 1 uM incubated for 5 hrs in HTD dialysis in the presence of verapamil by LC-MS/MS analysis relative to control; assay type: ADME, cell-free; conditions: read-out: PPB (converted)
[13] = Stability in Sprague-Dawley rat plasma assessed as half life by LC-MS/MS analysis; assay type: ADME, cell-free
[14] = Drug metabolism in Sprague-Dawley rat liver cells at 2 uM incubated upto 120 mins by LC-MS/MS analysis; assay type: ADME, cell-based; conditions: 2 h
[15] = Drug metabolism in Beagle dogs liver cells at 2 uM incubated upto 120 mins by LC-MS/MS analysis; assay type: ADME, cell-based, Canis lupus familiaris; conditions: dog, 2 h
[16] = Drug metabolism in human liver cells at 2 uM incubated upto 120 mins by LC-MS/MS analysis; assay type: ADME, cell-based; conditions: 2 h
CYP2C9 = CYP2C9 (Homo sapiens, UniProt P11712); assay: Inhibition of recombinant human CYP2C9 assessed as residual activity at 1 uM in the presence of NADPH incubated for 60 mins by LC-MS/MS analysis relative to control; assay type: ADME; conditions: read-out: Activity
Sequence of CYP2C9 (P11712 whole entry): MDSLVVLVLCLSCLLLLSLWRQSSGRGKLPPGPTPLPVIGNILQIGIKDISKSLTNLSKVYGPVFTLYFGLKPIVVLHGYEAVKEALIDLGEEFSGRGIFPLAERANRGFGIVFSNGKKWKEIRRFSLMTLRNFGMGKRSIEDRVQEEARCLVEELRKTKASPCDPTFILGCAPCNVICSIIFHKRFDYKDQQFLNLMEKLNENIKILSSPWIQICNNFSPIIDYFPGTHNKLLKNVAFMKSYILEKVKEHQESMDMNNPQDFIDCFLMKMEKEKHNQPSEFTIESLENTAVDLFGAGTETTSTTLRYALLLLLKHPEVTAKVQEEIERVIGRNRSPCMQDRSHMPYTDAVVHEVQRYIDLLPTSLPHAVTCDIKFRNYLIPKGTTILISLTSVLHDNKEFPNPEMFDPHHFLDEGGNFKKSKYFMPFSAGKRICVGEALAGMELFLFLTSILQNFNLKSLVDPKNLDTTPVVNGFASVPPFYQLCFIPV

CYP2D6 = CYP2D6 (Homo sapiens, UniProt P10635); assay: Inhibition of recombinant human CYP2D6 assessed as residual activity at 1 uM in the presence of NADPH incubated for 60 mins by LC-MS/MS analysis relative to control; assay type: ADME; conditions: read-out: Activity
Sequence of CYP2D6 (P10635 whole entry): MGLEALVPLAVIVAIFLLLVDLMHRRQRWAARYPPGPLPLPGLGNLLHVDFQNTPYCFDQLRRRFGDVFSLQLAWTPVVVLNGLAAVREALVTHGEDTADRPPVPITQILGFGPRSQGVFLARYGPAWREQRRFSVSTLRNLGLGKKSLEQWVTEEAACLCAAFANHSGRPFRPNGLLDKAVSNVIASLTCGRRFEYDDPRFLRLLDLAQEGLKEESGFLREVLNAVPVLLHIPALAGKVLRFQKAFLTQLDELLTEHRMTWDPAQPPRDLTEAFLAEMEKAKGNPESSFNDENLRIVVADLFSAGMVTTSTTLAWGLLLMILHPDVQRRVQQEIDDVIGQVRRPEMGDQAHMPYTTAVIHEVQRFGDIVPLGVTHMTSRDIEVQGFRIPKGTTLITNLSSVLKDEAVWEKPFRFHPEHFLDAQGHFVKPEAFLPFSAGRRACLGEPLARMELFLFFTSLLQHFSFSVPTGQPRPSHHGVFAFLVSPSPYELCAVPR

Cytochrome P450 2D6 = Cytochrome P450 2D6 (Homo sapiens, UniProt P10635); assay: Inhibition of CYP2D6 in human liver microsomes in the presence of NADPH incubated for 60 mins by LC-MS/MS analysis; assay type: ADME, Microsome
Sequence of Cytochrome P450 2D6 (P10635 whole entry): as above

[17] = Induction of CYP1A2 mRNA expression in human primary hepatocyte isolated from YND donor at 0.1 to 10 uM incubated for 72 hrs by real-time PCR analysis; assay type: ADME, cell-based; conditions: hepatocytes, dose 0.1-10 µM
[18] = Induction of CYP3A4 mRNA expression in human primary hepatocyte isolated from RAS donor at 0.1 to 10 uM incubated for 72 hrs by real-time PCR analysis; assay type: ADME, cell-based; conditions: hepatocytes, dose 0.1-10 µM
[19] = Induction of CYP1A2 mRNA expression in human primary hepatocyte isolated from DZM donor at 0.1 to 10 uM incubated for 72 hrs by real-time PCR analysis; assay type: ADME, cell-based; conditions: hepatocytes, dose 0.1-10 µM
[20] = Induction of CYP1A2 mRNA expression in human primary hepatocyte isolated from RAS donor at 0.1 to 10 uM incubated for 72 hrs by real-time PCR analysis; assay type: ADME, cell-based; conditions: hepatocytes, dose 0.1-10 µM
[21] = Induction of CYP2B6 mRNA expression in human primary hepatocyte isolated from DZM donor at 0.1 to 10 uM incubated for 72 hrs by real-time PCR analysis; assay type: ADME, cell-based; conditions: hepatocytes, dose 0.1-10 µM
[22] = Drug distribution in Sprague-Dawley rat stomach at 5 mg/kg, IG administrated as single dose measured after 0.5 hrs by LC-MS/MS analysis; assay type: ADME, organism-based; conditions: in vivo, po
[23] = Drug distribution in Sprague-Dawley rat small intestine at 5 mg/kg, IG administrated as single dose measured after 0.5 hrs by LC-MS/MS analysis; assay type: ADME, organism-based; conditions: in vivo, po
[24] = Drug accumulation in male Beagle dogs at 5 mg/kg, IG measured for 7 days by LC-MS/MS analysis; assay type: ADME, organism-based, Canis lupus familiaris; conditions: dog, in vivo, po, 168 h, time 7 day
[25] = Drug accumulation in female Beagle dogs at 5 mg/kg, IG measured for 7 days by LC-MS/MS analysis; assay type: ADME, organism-based, Canis lupus familiaris; conditions: dog, in vivo, po, 168 h, time 7 day
JeKo-1 = assay: Antitumor activity against human JeKo-1 cells xenografted in female CB17 SCID mouse assessed as tumor growth inhibition at 40 mg/kg BID, po administered as 3 days on and 4 days off schedule for 24 days relative to control; assay type: functional; conditions: JeKo-1, 576 h, time 24 day, read-out: TGI
LoVo [26] = assay: Antitumor activity against human LoVo cells xenografted in female Balb/c nude mouse assessed as tumor growth inhibition at 60 mg/kg QD, po measured every 3 days for 25 days relative to control; assay type: functional; conditions: 600 h, time 25 day, read-out: TGI
LoVo [27] = assay: Antitumor activity against human LoVo cells xenografted in female Balb/c nude mouse assessed as tumor growth inhibition at 10 mg/kg QD, po measured every 3 days for 25 days relative to control; assay type: functional; conditions: 600 h, time 25 day, read-out: TGI
[28] = Toxicity in female Balb/c nude mouse xenografted with human LoVo cells assessed as body weight at 40 mg/kg QD, po measured every 3 days for 25 days; assay type: organism-based; conditions: in vivo, 600 h, time 25 day
NCI-H1703 [29] = assay: Antitumor activity against human NCI-H1703 cells xenografted in female Balb/c nude mouse assessed as tumor growth inhibition at 40 mg/kg QD, po measured every 3 days for 28 days by vernier caliper based analysis relative to control; assay type: functional; conditions: NCI-H1703, 672 h, time 28 day, read-out: TGI
[30] = Toxicity in female Balb/c nude mouse xenografted with human NCI-H1703 cells assessed as body weight at 40 mg/kg QD, po measured every 3 days for 25 days at 10 to 60 mg/kg QD, po measured every 3 days for 28 days; assay type: organism-based; conditions: in vivo, 672 h, time 28 day
NCI-H1703 [31] = assay: Antitumor activity against human NCI-H1703 cells xenografted in female Balb/c nude mouse assessed as tumor growth inhibition at 40 mg/kg QD, po administered as 3 days on and 4 days off schedule for 4 weeks relative to control; assay type: functional; conditions: NCI-H1703, 672 h, time 28 day, read-out: TGI

## Cc1nn(-c2cccnc2)c(C)c1-c1cc(N2CC3CCC(C2)O3)nc2c(-c3ccn[nH]3)cnn12.O=C(O)/C=C/C(=O)O
LoVo [1]
  Activity: 10%
LoVo [2]
  Activity: 23.8%
LoVo [3]
  Activity: 19.8%
LoVo [4]
  Activity: 2.65%
[5]
  IC50: 1820 nM
[6]
  IC50: 240 nM
[7]
  pKa: 4.25
[8]
  permeability: Permeable
[9]
  permeability: Permeable
[10]
  fraction unbound at 5 h, 1 µM: 0.136
[11]
  fraction unbound at 5 h, 1 µM: 0.256
[12]
  fraction unbound at 5 h, 1 µM: 0.075
[13]
  half-life: > 2 h
[14]
  Drug metabolism: metabolite_detected
[15]
  Drug metabolism: metabolite_detected
[16]
  Drug metabolism: metabolite_detected
CYP2C9
  activity at 1 h, 1 µM: 102%
CYP2D6
  activity at 1 h, 1 µM: 101%
Cytochrome P450 2D6
  IC50: > 100000 nM
[17]
  Activity: Not_active
[18]
  Activity: Active
[19]
  Activity: Not_active
[20]
  Activity: Not_active
[21]
  Activity: Active
[22]
  Drug uptake: Active
[23]
  Drug uptake: Active
[24]
  Drug uptake: Active
[25]
  Drug uptake: Active
JeKo-1
  inhibition in vivo at 40 mg/kg: 90.6%
LoVo [26]
  inhibition in vivo at 60 mg/kg: 67.4%
LoVo [27]
  inhibition in vivo at 10 mg/kg: 13.9%
[28]
  Activity: Non-toxic
NCI-H1703 [29]
  inhibition in vivo at 40 mg/kg: 73.3%
[30]
  Activity: Toxic
NCI-H1703 [31]
  inhibition in vivo at 40 mg/kg: 36.2%
